Patent publication US7091222B2, “Imidazole derivatives” (Hoffmann-La Roche Inc., priority 2003, dated 2006)

Target: T1, human mGlu 5a receptor (Homo sapiens, UniProt P41594)
T1 construct: expressed in transfected cells; host or cells: EBNA cells (transient transfection); membrane homogenates
Assay: [3H]MPEP competition binding on membranes of EBNA cells transfected with human mGlu 5a receptor
Conditions: competition with [3H]MPEP (2 nM), 1 h at 4° C., membranes of transiently transfected EBNA cells; Ki=IC50/[1+L/Kd]
Method: For binding experiments, cDNA encoding human mGlu 5a receptor was transiently transfected into EBNA cells using a procedure described by Schlaeger and Christensen [Cytotechnology 15:1–13 (1998)]. Cell membrane homogenates were stored at −80° C. until the day of assay where upon they were thawed and resuspended and polytronised in 15 mM Tris-HCl, 120 mM NaCl, 100 mM KCl, 25 mM CaCl2, 25 mM MgCl2 binding buffer at pH 7.4 to a final assay concentration of 20 μg protein/well.
Saturation isotherms were determined by addition of twelve [^3H]MPEP concentrations (0.04–100 nM) to these membranes (in a total volume of 200 μl) for 1 h at 4° C. Competition experiments were performed with a fixed concentration of [^3H]MPEP (2 nM) and IC50 values of test compounds evaluated using 11 concentrations (0.3–10,000 nM). Incubations were performed for 1 h at 4° C.
At the end of the incubation, membranes were filtered onto unifilter (96-well white microplate with bonded GF/C filter preincubated 1 h in 0.1% PEI in wash buffer, Packard BioScience, Meriden, Conn.) with a Filtermate 96 harvester (Packard BioScience) and washed 3 times with cold 50 mM Tris-HCl, pH 7.4 buffer. Nonspecific binding was measured in the presence of 10 μM MPEP. The radioactivity on the filter was counted (3 min) on a Packard Top-count microplate scintillation counter with quenching correction after addition of 45 μl of microscint 40 (Canberra Packard S. A., Zürich, Switzerland) and shaking for 20 min.
The inhibition (antagonists) curves were fitted with a four parameter logistic equation giving IC50, and Hill coefficient using an iterative non linear curve fitting software (Xcel fit).
For binding experiments the Ki values of the compounds tested are given. the Ki value is defined by the following formula: Ki=IC50/[1+L /Kd] in which the IC50 values are those concentrations of the compounds tested which cause 50% inhibition of the competing radioligand ([^3H]MPEP). L is the concentraion of radioligand used in the binding experiment and the Kd value of the radioligand is empirically determined for each batch of membranes prepared.

T1 sequence (P41594 21-1180 isoform P41594-2 limits assumed): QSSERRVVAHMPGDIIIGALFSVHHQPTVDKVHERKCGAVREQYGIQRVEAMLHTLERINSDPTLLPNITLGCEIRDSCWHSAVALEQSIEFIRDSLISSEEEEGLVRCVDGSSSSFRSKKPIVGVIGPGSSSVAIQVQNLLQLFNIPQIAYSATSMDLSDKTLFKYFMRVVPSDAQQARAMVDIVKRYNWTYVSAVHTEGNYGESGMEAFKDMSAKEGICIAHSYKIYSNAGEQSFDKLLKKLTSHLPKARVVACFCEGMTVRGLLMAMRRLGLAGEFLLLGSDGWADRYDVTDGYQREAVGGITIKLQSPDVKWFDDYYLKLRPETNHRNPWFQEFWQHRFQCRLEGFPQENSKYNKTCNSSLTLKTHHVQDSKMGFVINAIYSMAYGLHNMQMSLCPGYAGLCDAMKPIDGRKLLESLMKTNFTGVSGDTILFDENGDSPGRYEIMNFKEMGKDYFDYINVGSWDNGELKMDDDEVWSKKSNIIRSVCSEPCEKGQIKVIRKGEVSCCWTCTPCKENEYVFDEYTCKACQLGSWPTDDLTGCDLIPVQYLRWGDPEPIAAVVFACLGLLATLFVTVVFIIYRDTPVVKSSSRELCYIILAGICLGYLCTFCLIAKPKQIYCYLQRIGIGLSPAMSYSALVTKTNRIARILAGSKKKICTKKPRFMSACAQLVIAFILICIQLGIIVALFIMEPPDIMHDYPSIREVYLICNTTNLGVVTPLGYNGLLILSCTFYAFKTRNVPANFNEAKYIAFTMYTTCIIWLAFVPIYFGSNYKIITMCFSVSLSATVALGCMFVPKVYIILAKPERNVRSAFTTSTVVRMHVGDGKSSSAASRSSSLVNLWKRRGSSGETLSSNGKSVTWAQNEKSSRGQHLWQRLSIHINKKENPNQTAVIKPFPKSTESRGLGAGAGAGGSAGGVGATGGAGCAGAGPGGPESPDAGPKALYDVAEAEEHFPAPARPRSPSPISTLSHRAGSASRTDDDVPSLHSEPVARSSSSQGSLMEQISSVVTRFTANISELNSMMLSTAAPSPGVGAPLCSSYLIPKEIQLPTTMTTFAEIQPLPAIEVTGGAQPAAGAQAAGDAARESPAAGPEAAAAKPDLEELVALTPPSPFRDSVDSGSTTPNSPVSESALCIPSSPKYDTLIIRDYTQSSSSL

Structure (SMILES)	Ki [nM]
COCCn1cc(C#Cc2ccnc(C)c2)nc1C [Example 7, 4-[1-(2-Methoxy-ethyl)-2-methyl-1H-imidazol-4-ylethynyl]-2-methyl-pyridine]	122
Cc1cc(C#Cc2cn(C(C)C)c(C)n2)ccn1 [Example 2, 4-(1-Isopropyl-2-methyl-1H-imidazol-4-ylethynyl)-2-methyl-pyridine]	68
Cc1cc(C#Cc2cn(CC(F)(F)F)c(C)n2)ccn1 [Example 21, 2-Methyl-4-[2-methyl-1-(2,2,2-trifluoro-ethyl)-1H-imidazol-4-ylethynyl]-pyridine]	54
Cc1nc(C#Cc2ccnc(Cl)c2)cn1CC(C)C [Example 8, 2-Chloro-4-(1-isobutyl-2-methyl-1H-imidazol-4-ylethynyl)-pyridine]	191
Cc1nc(C#Cc2ccnc(Cl)c2)cn1C [Example 12, 2-Chloro-4-(1,2-dimethyl-1H-imidazol-4-ylethynyl)-pyridine]	49
Cc1nc(C#Cc2ccnc(Cl)c2)cn1CC(F)(F)F [Example 22, 2-Chloro-4-[2-methyl-1-(2,2,2-trifluoro-ethyl)-1H-imidazol-4-ylethynyl]-pyridine]	95

Stronger by Ki, values ahead:

Ki [nM]	Structure (SMILES)
38	Cc1cc(C#Cc2cn(CC3CC3)c(C)n2)ccn1 [Example 4, 4-(1-Cyclopropylmethyl-2-methyl-1H-imidazol-4-ylethynyl)-2-methyl-pyridine]
33	Cc1cc(C#Cc2cn(CC#N)c(C)n2)ccn1 [Example 6, [2-Methyl-4-(2-methyl-pyridin-4-ylethynyl)-imidazol-1-yl]-acetonitrile]
28	Cc1cc(C#Cc2cn(C)c(C3CC3)n2)ccn1 [Example 13, 4-(2-Cyclopropyl-1-methyl-1H-imidazol-4-ylethynyl)-2-methyl-pyridine]
